How the values were obtained:
LXRβ [1] = molecular target: T1, LXRβ (Homo sapiens (Human), UniProt P55055); assay: LXRβ PPI (category A-D, Tables 1 and 3); format: biochemical; conditions: Table 3, trans-AB examples
SREBP-2 [2] = molecular target: T2, SREBP-2 (Homo sapiens (Human), UniProt Q12772); assay: SREBP-2 IC50 (category A-D, Tables 1 and 3); format: cell-based; conditions: Table 3, trans-AB examples
LXRβ [3] = molecular target: T1, LXRβ; assay: In vitro assay LXRβ: PathHunter NHR CHO cells, LXRβ / Steroid Receptor Co-activator Peptide enzyme fragment complementation; format: cell-based; conditions: PathHunter NHR CHO cells, full-length human LXRβ and SRCP, chemiluminescent signal; read-out: LXRβ PPI
Outline: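 Co-activator recruitment measured by chemiluminescence after signal generation. The CHO line carries full-length human LXRβ tagged with ProLink and an SRCP–enzyme acceptor fusion in the nucleus; cells sat overnight at 37° C before testing, in charcoal-dextran filtered serum medium with 1% final vehicle.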

SREBP-2 [4] = molecular target: T2, SREBP-2; assay: In vitro assay SREBP-2: PathHunter U2OS SREBP-2 Nuclear Translocation Cell Line, U18666A-stimulated; format: cell-based; conditions: PathHunter U2OS SREBP-2 nuclear translocation cells, U18666A 10 μM, overnight (16 hours)

T1 sequence (P55055 whole entry): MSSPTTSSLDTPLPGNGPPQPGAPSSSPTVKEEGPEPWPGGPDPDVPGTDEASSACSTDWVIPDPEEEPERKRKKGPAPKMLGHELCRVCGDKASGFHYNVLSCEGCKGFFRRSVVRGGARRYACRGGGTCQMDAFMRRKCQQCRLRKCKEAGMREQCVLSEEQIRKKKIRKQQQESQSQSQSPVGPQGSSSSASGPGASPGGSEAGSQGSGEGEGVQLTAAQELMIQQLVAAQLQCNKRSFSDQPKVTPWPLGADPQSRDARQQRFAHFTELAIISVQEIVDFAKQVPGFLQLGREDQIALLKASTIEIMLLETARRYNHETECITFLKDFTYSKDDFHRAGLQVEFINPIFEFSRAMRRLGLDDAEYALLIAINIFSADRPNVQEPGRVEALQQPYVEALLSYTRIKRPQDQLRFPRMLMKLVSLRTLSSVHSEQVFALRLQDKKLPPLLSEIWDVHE

C=C[C@](O)(CC[C@@H](C)[C@H]1CC[C@H]2[C@@H]3CC=C4C[C@@H](O)CC[C@]4(C)[C@H]3CC[C@]12C)C(F)(F)F [Example 20, (3S,8S,9S,10R,13R,14S,17R)-17-((2R,5R)-5-hydroxy-5-(trifluoromethyl)hept-6-en-2-yl)-10,13-dimethyl-2,3,4,7,8,9,10,11,12,13,14,15,16,17-tetradecahydro-1H-cyclopenta[a]phenanthren-3-ol]
LXRβ PPI (LXRβ [1]): D (>10000 nM) | IC50 (SREBP-2 [2]): < 250 nM | EC50 (LXRβ [3]): > 10000 nM | IC50 (SREBP-2 [4]): < 250 nM

CCCCON(C)C(=O)CC[C@@H](C)[C@H]1CC[C@H]2[C@@H]3CC=C4C[C@@H](O)CC[C@]4(C)[C@H]3CC[C@]12C [Example 16]
LXRβ PPI (LXRβ [1]): B (250 nM-1000 nM) | IC50 (SREBP-2 [2]): < 250 nM | EC50 (LXRβ [3]): 1000 to 10000 nM

C=C[C@@](O)(CC[C@@H](C)[C@H]1CC[C@H]2[C@@H]3CC=C4C[C@@H](O)CC[C@]4(C)[C@H]3CC[C@]12C)C(F)(F)F [Example 19, (3S,8S,9S,10R,13R,14S,17R)-17-((2R,5S)-5-hydroxy-5-(trifluoromethyl)hept-6-en-2-yl)-10,13-dimethy12,3,4,7,8,9,10,11,12,13,14,15,16,17-tetradecahydro-1H-cyclopenta[a]phenanthren-3-ol]
LXRβ PPI (LXRβ [1]): D (>10000 nM) | IC50 (SREBP-2 [2]): < 250 nM | EC50 (LXRβ [3]): 1000 to 10000 nM | IC50 (SREBP-2 [4]): < 250 nM

From patent publication US20230340011A1 (Asteroid Therapeutics, priority 2022, published 2023)
